In ChEMBL document CHEMBL1149428, “Design, synthesis, and biological activity of novel polycyclic aza-amide FKBP12 ligands” (J Med Chem, 2006) one finds Ki data, which are given here for 59 compounds.

For this assay, the target named is Peptidyl-prolyl cis-trans isomerase FKBP1A (Homo sapiens, UniProt P62942). Nature of the assay: Inhibition of FKBP12 rotamase activity.
Chain of Peptidyl-prolyl cis-trans isomerase FKBP1A (P62942 whole entry): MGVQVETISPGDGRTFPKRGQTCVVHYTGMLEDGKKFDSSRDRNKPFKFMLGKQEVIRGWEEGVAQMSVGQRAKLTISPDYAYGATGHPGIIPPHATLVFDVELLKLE
The compound `COc1ccc2c(c1)CCN1C(=O)C3CCCC(C21)N3S(=O)(=O)Nc1ccc(F)nc1` (centres undefined) displayed a Ki of 183 nM. `COc1cc(C(=O)C(=O)N2C3CCCC2C2c4cc(Cl)ccc4CCN2C3=O)cc(OC)c1OC` (centres undefined): the Ki stood at 126 nM.

On to `COc1cc2c(c(OC)c1)C1C3CCCC(C(=O)N1CC2)N3S(=O)(=O)c1ccc(C#N)cc1` (centres undefined), for which the affinity, expressed as Ki, was 82 nM. As to `CCc1ccc(S(=O)(=O)N2C3CCCC2C2c4c(cc(OC)cc4OC)CCN2C3=O)cc1` (centres undefined), affinity was put at a Ki of 266 nM. Consider `COc1cc2c(c(OC)c1)C1C3CCCC(C(=O)N1CC2)N3S(=O)(=O)c1ccc(-c2ccc(Cl)c(Cl)c2)cc1` (centres undefined), for which the Ki is 156 nM. Regarding `COc1ccc2c(c1)CCN1C(=O)C3CCCC(C21)N3S(=O)(=O)Nc1cc(F)c(F)c(F)c1` (centres undefined), the affinity, expressed as Ki, was 236 nM. Compound `COc1cc2c(c(OC)c1)C1C3CCCC(C(=O)N1CC2)N3C(=O)C(=O)c1ccc(Cl)cc1` (centres undefined) showed a Ki of 72 nM.

`COc1cc2c(c(OC)c1)C1C3CCCC(C(=O)N1CC2)N3C(=O)C(=O)c1ccccc1` (centres undefined) registered a Ki of 100 nM.

Take `COc1ccc2c(c1)CCN1C(=O)C3CCCC(C21)N3S(=O)(=O)Nc1ccc(Cl)nc1` (centres undefined): the Ki was 360 nM. Under `COc1cc2c(c(OC)c1)C1C3CCCC(C(=O)N1CC2)N3C(=O)C(=O)c1ccc(OC)c(OC)c1` (centres undefined) stands 60 nM. Turning to `COc1cc2c(c(OC)c1)C1C3CCCC(C(=O)N1CC2)N3C(=O)N(c1ccccc1C)c1ccccc1C` (centres undefined), the Ki turned out to be 330 nM. Regarding `CCc1ccc(C(=O)C(=O)N2C3CCCC2C2c4c(cc(OC)cc4OC)CCN2C3=O)cc1` (centres undefined), the Ki was found to be 123 nM.

With `COc1cc2c(c(OC)c1)C1C3CCCC(C(=O)N1CC2)N3C(=O)C(=O)c1cc(OC)c(OC)c(OC)c1` (centres undefined), the Ki came to 69 nM. As for `COc1cc(OC)cc(C(=O)C(=O)N2C3CCCC2C2c4c(cc(OC)cc4OC)CCN2C3=O)c1` (centres undefined), the affinity corresponds to a Ki of 34 nM. In turn, `COc1cc2c(c(OC)c1)C1C3CCCC(C(=O)N1CC2)N3C(=O)C(=O)c1ccccc1Cl` (centres undefined) returned a Ki of 583 nM. For `COc1cc2c(c(OC)c1)C1C3CCCC(C(=O)N1CC2)N3C(=O)C(=O)c1ccc(F)cc1` (centres undefined) the value was 110 nM; for `COc1cc(C(=O)C(=O)N2C3CCCC2C2c4cc(F)ccc4CCN2C3=O)cc(OC)c1OC` (centres undefined), 225 nM. The compound `COc1cc(C(=O)C(=O)N2C3CCCC2C2c4c(F)cccc4CCN2C3=O)cc(OC)c1OC` (centres undefined) showed a Ki of 201 nM.

The compound `COc1cc2c(c(OC)c1)C1C3CCCC(C(=O)N1CC2)N3C(=O)C(=O)c1cccc(Cl)c1` (centres undefined) yielded a Ki of 46 nM.

`COc1cc2c(c(OC)c1)C1C3CCCC(C(=O)N1CC2)N3S(=O)(=O)c1ccccc1` (centres undefined) showed a Ki of 244 nM. Take `COc1ccc2c(c1)CCN1C(=O)C3CCCC(C21)N3S(=O)(=O)Nc1ccc(F)c(F)c1` (centres undefined): the Ki amounted to 150 nM. The compound `COc1ccc2c(c1)CCN1C(=O)C3CCCC(C21)N3S(=O)(=O)Nc1ccc(N2CCOCC2)nc1` (centres undefined) gave a Ki of 591 nM.

Turning to `COc1ccc2c(c1)CCN1C(=O)C3CCCC(C21)N3C(=O)C(=O)c1cc(OC)c(OC)c(OC)c1` (centres undefined), the Ki turned out to be 143 nM. The compound `COc1cc2c(c(OC)c1)C1C3CCCC(C(=O)N1CC2)N3C(=O)C(=O)c1cc(C(C)(C)C)c(O)c(C(C)(C)C)c1` (centres undefined) showed a Ki of 20800 nM. Compound `COc1cc2c(c(OC)c1)C1C3CCCC(C(=O)N1CC2)N3C(=O)C(=O)c1ccc(Br)cc1` (centres undefined) yielded a Ki of 71 nM.

In turn, `CCN(CC)c1ccc(C(=O)C(=O)N2C3CCCC2C2c4c(cc(OC)cc4OC)CCN2C3=O)cc1` (centres undefined) came in with a Ki of 1000 nM.

The compound `COc1cc(C(=O)C(=O)N2C3CCCC2C2c4ccc(Cl)cc4CCN2C3=O)cc(OC)c1OC` (centres undefined) showed a Ki of 171 nM.

The compound `COc1cc2c(c(OC)c1)C1C3CCCC(C(=O)N1CC2)N3C(=O)Cc1ccc(Cl)cc1` (centres undefined) registered an inhibition constant (Ki) of 3100 nM. For `COc1cc(C(=O)C(=O)N2C3CCCC2C2c4cccc(Cl)c4CCN2C3=O)cc(OC)c1OC` (centres undefined), the affinity, expressed as Ki, was 152 nM.

Take `COc1cc2c(c(OC)c1)C1C3CCCC(C(=O)N1CC2)N3C(=O)C(=O)c1ccccc1O` (centres undefined): the Ki was found to be 238 nM. Turning to `COc1ccc2c(c1)CCN1C(=O)C3CCCC(C21)N3S(=O)(=O)Nc1cc(F)c(F)cc1F` (centres undefined), the Ki came to 590 nM. In turn, `COc1cc2c(c(OC)c1)C1C3CCCC(C(=O)N1CC2)N3C(=O)C(=O)c1cccs1` (centres undefined) registered a Ki of 107 nM. Compound `COc1cc2c(c(OC)c1)C1C3CCCC(C(=O)N1CC2)N3C(=O)C(=O)c1ccco1` (centres undefined) displayed a Ki of 279 nM. Under `COc1ccc(C(=O)C(=O)N2C3CCCC2C2c4c(cc(OC)cc4OC)CCN2C3=O)cc1` (centres undefined) stands 131 nM; under `COc1cc2c(c(OC)c1)C1C3CCCC(C(=O)N1CC2)N3S(=O)(=O)c1ccc(C)cc1` (centres undefined), 84 nM. For `COc1cc2c(c(OC)c1)C1C3CCCC(C(=O)N1CC2)N3C(=O)N(c1ccc([N+](=O)[O-])cc1)c1ccc([N+](=O)[O-])cc1` (centres undefined) the value was 772 nM. Consider `COc1cc2c(c(OC)c1)C1C3CCCC(C(=O)N1CC2)N3C(=O)C(=O)c1ccc(Cl)c(Cl)c1` (centres undefined), for which the Ki was determined as 34 nM. Under `COc1ccc2c(c1)CCN1C(=O)C3CCCC(C21)N3S(=O)(=O)Nc1ccc(OC)nc1` (centres undefined) stands 210 nM; under `COc1cc2c(c(OC)c1)C1C3CCCC(C(=O)N1CC2)N3S(=O)(=O)c1cccc(Br)c1` (centres undefined), 54 nM. For `COc1cc2c(c(OC)c1)C1C3CCCC(C(=O)N1CC2)N3C(=O)C(=O)c1cccc(Cl)c1Cl` (centres undefined), the Ki stood at 282 nM.

`COc1ccc2c(c1)CCN1C(=O)C3CCCC(C21)N3S(=O)(=O)N1CCCCC1` (centres undefined): the Ki is 360 nM. Under `COc1cc2c(c(OC)c1)C1C3CCCC(CN1CC2)N3C(=O)C(=O)c1cc(OC)c(OC)c(OC)c1` (centres undefined) stands 31700 nM; under `COc1cc2c(c(OC)c1)C1C3CCCC(C(=O)N1CC2)N3C(=O)C(=O)c1cccnc1` (centres undefined), 110 nM; under `COc1cc2c(c(OC)c1)C1C3CCCC(C(=O)N1CC2)N3C(=O)C(O)c1ccc(Cl)cc1` (centres undefined), 208 nM. `COc1cc2c(c(OC)c1)C1C3CCCC(C(=O)N1CC2)N3C(=O)N(c1ccc(F)cc1F)c1ccc(F)cc1F` (centres undefined) had a Ki of 7000 nM.

Consider `COc1cc2c(c(OC)c1)C1C3CCCC(C(=O)N1CC2)N3C(=O)C(=O)c1cc2ccccc2[nH]1` (centres undefined), for which affinity was put at a Ki of 2300 nM. `COc1cc2c(c(OC)c1)C1C3CCCC(C(=O)N1CC2)N3S(=O)(=O)c1cccc(C)c1` (centres undefined) yielded a Ki of 104 nM. `COc1cc(C(=O)C(=O)N2C3CCCC2C2c4ccccc4CCN2C3=O)cc(OC)c1OC` (centres undefined): affinity was put at a Ki of 217 nM. `COc1cc2c(c(OC)c1)C1C3CCCC(C(=O)N1CC2)N3C(=O)N(c1ccccc1)c1ccccc1` (centres undefined) returned a Ki of 2700 nM. `COc1ccc2c(c1)CCN1C(=O)C3CCCC(C21)N3S(=O)(=O)Nc1cc(OC)c(OC)c(OC)c1` (centres undefined): the affinity, expressed as Ki, was 640 nM.

The compound `COc1cc2c(c(OC)c1)C1C3CCCC(C(=O)N1CC2)N3C(=O)C(=O)c1cc(Cl)ccc1Cl` (centres undefined) registered a Ki of 153 nM. Compound `COc1cc(C(=O)C(=O)N2C3CCCC2C2c4cc(C)ccc4CCN2C3=O)cc(OC)c1OC` (centres undefined) came in with a Ki of 85 nM.

In turn, `COc1cc2c(c(OC)c1)C1C3CCCC(C(=O)N1CC2)N3C(=O)C(F)(F)c1cc(OC)c(OC)c(OC)c1` (centres undefined) returned a Ki of 91 nM. In the case of `COc1cccc2c1CCN1C(=O)C3CCCC(C21)N3C(=O)C(=O)c1cc(OC)c(OC)c(OC)c1` (centres undefined), the Ki stood at 105 nM. With `COc1cc2c(c(OC)c1)C1C3CCCC(C(=O)N1CC2)N3S(=O)(=O)c1ccc(Nc2cc(OC)c(OC)c(OC)c2)cc1` (centres undefined), the Ki worked out at 288 nM.

Turning to `COc1cc2c(c(OC)c1)C1C3CCCC(C(=O)N1CC2)N3S(=O)(=O)c1ccc(Br)cc1` (centres undefined), the affinity, expressed as Ki, was 92 nM.

Compound `COc1cc2c(c(OC)c1)C1C3CCCC(C(=O)N1CC2)N3C(=O)C(=O)c1ccc(Cl)cc1Cl` (centres undefined) registered an inhibition constant (Ki) of 586 nM.

With `COc1ccc2c(c1)CCN1C(=O)C3CCCC(C21)N3S(=O)(=O)N1C[C@@H](C)O[C@@H](C)C1` (some centres undefined), the Ki was 123 nM. Under `COc1cc2c(c(OC)c1)C1C3CCCC(C(=O)N1CC2)N3C(=O)N(c1ccccc1OC)c1ccccc1OC` (centres undefined) stands 357 nM.

The Ki is a measure of affinity in units of concentration, obtained from inhibition or displacement. The low end stands for tighter binding, the high end for weaker binding.
